# According to patent US9815796B2 (Merck Sharp & Dohme Corp., priority 2013, dated 2017):
# Molecular target: human PDE2A1 (Homo sapiens (Human), UniProt O00408)
# Experiment: IMAP FP PDE selectivity panel, human PDE2A1
# Type: biochemical
# Details: Human PDE2, Lab B; read-out: Human PDE2 Ki (nM) - Lab B
# Method: Selectivity for PDE2, as compared to other PDE families, was assessed using the IMAP® technology. Human PDE 10A2 enzyme was prepared from cytosolic fractions of transiently transfected HEK cells. All other PDE's were GST Tag human enzyme expressed in insect cells and were obtained from BPS Bioscience (San Diego, Calif.): PDE1A (Cat#60010), human PDE2A1 (Cat#60020), PDE3A (Cat#60030), PDE4A1A (Cat#60040), PDE5A1 (Cat#60050), PDE6C (Cat#60060), PDE7A (Cat#60070), PDE8A1 (Cat#60080), PDE9A2 (Cat#60090), PDE11A4 (Cat#60110).
# Assays for PDE 1 through 11 were performed in parallel at room temperature in 384-well microtiter plates with an incubation volume of 20.2 μL. Solutions of test compounds were prepared in DMSO and serially diluted with DMSO to yield 30 μL of each of ten solutions differing by 3-fold in concentration, at 32 serial dilutions per plate. […] A Labcyte POD 810 (Labcyte, Sunnyvale, Calif.) was used to dispense 200 nL from each well of the titration plate to make eleven copies of the assay plate for each titration, one copy for each PDE enzyme. A solution of each enzyme (dilution from aliquots, sufficient to produce 20% substrate conversion) and a separate solution of FAM-labeled cAMP or FAM-labeled cGMP from Molecular Devices (Sunnyvale, Calif., product # R7506 or cGMP#R7508), at a final concentration of 50 nM were made in the assay buffer (10 mM Tris HCl, pH 7.2, 10 mM MgCl2, 0.05% NaN3 0.01% Tween-20, and 1 mM DTT). Note that the substrate for PDE2 is 50 nM FAM cAMP containing 1000 nM of cGMP. The enzyme and the substrate were then added to the assay plates in two consecutive additions of 10 μL and then shaken to mix. The reaction was allowed to proceed at room temperature for 60 minutes. A binding solution was then made from the kit components, comprised of 80% Solution A, 20% Solution B and binding reagent at a volume of 1/600 the total binding solution. The enzymatic reaction was stopped by addition of 60 μL of the binding solution to each well of the assay plate. The plates were sealed and shaken for 10 seconds. The plates were incubated at room temperature for one hour, then the parallel and perpendicular fluorescence was measured using a Tecan Genios Pro plate reader (Tecan, Switzerland). The apparent inhibition constants for the compounds against all 11 PDE's was determined from the parallel and perpendicular fluorescent readings as described for PDE10 FP assay using the following apparent KM values for each enzyme and substrate combination: PDE1A (FAM cGMP) 70 nM, human PDE2A1 (FAM cAMP) 10,000 nM, PDE3A (FAM cAMP) 50 nM, PDE4A1A (FAM cAMP) 1500 nM, PDE5A1 (FAM cGMP) 400 nM, PDE6C (FAM cGMP) 700 nM, PDE7A (FAM cAMP) 150 nM, PDE8A1 (FAM cAMP) 50 nM, PDE9A2 (FAM cGMP) 60 nM, PDE10A2 (FAM cAMP) 150 nM, PDE11A4 (FAM cAMP) 1000 nM. The intrinsic PDE2 inhibitory activity of a compound which may be used in accordance with the present invention may be determined by these assays.
# Sequence of human PDE2A1 (O00408 other isoform, or with tags, fused parts or gaps): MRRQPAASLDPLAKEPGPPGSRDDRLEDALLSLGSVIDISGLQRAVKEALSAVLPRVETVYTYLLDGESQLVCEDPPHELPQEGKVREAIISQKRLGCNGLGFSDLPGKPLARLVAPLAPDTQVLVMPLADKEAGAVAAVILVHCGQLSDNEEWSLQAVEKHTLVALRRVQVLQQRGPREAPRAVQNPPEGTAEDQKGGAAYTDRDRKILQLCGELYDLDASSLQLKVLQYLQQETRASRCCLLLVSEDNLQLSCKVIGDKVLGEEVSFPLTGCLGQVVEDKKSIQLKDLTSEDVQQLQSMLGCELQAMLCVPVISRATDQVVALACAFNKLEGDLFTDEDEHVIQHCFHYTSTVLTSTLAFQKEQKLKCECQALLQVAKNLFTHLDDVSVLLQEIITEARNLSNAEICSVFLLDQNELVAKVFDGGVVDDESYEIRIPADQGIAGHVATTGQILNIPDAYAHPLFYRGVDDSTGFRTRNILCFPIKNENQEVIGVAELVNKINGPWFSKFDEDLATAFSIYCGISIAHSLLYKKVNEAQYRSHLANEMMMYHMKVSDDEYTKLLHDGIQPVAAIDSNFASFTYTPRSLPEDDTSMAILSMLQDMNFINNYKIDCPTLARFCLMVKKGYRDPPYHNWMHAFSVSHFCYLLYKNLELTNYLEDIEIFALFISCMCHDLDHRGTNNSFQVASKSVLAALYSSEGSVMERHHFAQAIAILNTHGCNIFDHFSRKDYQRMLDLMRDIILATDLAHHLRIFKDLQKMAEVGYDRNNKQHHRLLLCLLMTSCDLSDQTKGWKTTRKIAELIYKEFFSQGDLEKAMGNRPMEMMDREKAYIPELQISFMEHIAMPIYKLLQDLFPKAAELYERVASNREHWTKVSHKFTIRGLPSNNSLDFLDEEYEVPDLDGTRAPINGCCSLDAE
row,SMILES,Ki
1,"Cc1nc(C(=O)N[C@@H](c2ccc3c(c2)OC(F)(F)O3)C(C)C)cc(=O)[nH]1 [Example 607, N-[(1R)-1-(2,2-difluoro-1,3-benzodioxol-5-yl)-2-methylpropyl]-2-methyl-6-oxo-1,6-dihydropyrimidine-4-carboxamide]",48 nM
2,"CC(NC(=O)c1cc(=O)[nH]c(-c2ncccn2)n1)c1ccc(C(C)(C)C(F)(F)F)cc1 (single isomer, unassigned) [Example 701, (R)- or (S)-6-oxo-N-(1-(4-(1,1,1-trifluoro-2-methylpropan-2-yl)phenyl)ethyl)-1,6-dihydro-[2,2′-bipyrimidine]-4-carboxamide]",127 nM
3,"Cc1nc(C(=O)NC2(c3ccc(CC(F)(F)F)cc3)CC2)cc(=O)[nH]1 [Example 627, 2-methyl-6-oxo-N-{1-[4-(2,2,2-trifluoroethyl)phenyl]cyclopropyl}-1,6-dihydropyrimidine-4-carboxamide]",46 nM
4,"Cc1nc(C(=O)NC(C)(C)c2ccc(C(F)F)c(F)c2)cc(=O)[nH]1 [Example 654, N-{1-[4-(difluoromethyl)-3-fluorophenyl]-1-methylethyl}-2-methyl-6-oxo-1,6-dihydropyrimidine-4-carboxamide]",72 nM
5,"Cc1nc(C(=O)N[C@H](C)c2ccc(C(F)F)cc2)cc(=O)[nH]1 [Example 656, N-{(1R)-1-[4-(difluoromethyl)phenyl]ethyl}-2-methyl-6-oxo-1,6-dihydropyrimidine-4-carboxamide]",111 nM
6,"CC[C@@H](NC(=O)c1cc(=O)[nH]c(-c2ncccn2)n1)c1ccc2c(c1)OC(F)(F)O2 [Example 590, N-[(1R)-1-(2,2-difluoro-1,3-benzodioxol-5-yl)propyl]-6-oxo-1,6-dihydro-2,2′-bipyrimidine-4-carboxamide]",34 nM
7,"O=C(N[C@@H](c1ccc(OC(F)F)cc1)C1CC1)c1cc(=O)[nH]c(-c2ncccn2)n1 [Example 559, N-{(R)-cyclopropyl[4-(difluoromethoxy)phenyl]methyl}-6-oxo-1,6-dihydro-2,2′-bipyrimidine-4-carboxamide]",128 nM
8,"CC[C@@H](NC(=O)c1cc(=O)[nH]c(C)n1)c1ccc(C(F)F)cc1 [Example 652, N-{(1R)-1-[4-(difluoromethyl)phenyl]propyl}-2-methyl-6-oxo-1,6-dihydropyrimidine-4-carboxamide]",138 nM
9,"Cc1nc(C(=O)NC(c2ccc(S(F)(F)(F)(F)F)cc2F)C(C)(C)C)cc(=O)[nH]1 (single isomer, unassigned) [Example 721, (S)- or (R)-N-(1-(2-fluoro-4-(pentafluoro-λ^6-sulfanyl)phenyl)-2,2-dimethylpropyl)-2-methyl-6-oxo-1,6-dihydropyrimidine-4-carboxamide]",~1220 nM
10,"CC(C)(NC(=O)c1cc(=O)[nH]c(-c2ncccn2)n1)c1ccc(OC(F)(F)F)cc1F [Example 574, N-{1-[2-fluoro-4-(trifluoromethoxy)phenyl]-1-methylethyl}-6-oxo-1,6-dihydro-2,2′-bipyrimidine-4-carboxamide]",831 nM
11,"Cc1nc(C(=O)NC2(c3ccc(OC(C)(C)C)cc3)CC2)cc(=O)[nH]1 [Example 626, N-[1-(4-tert-butoxyphenyl)cyclopropyl]-2-methyl-6-oxo-1,6-dihydropyrimidine-4-carboxamide]",58 nM
12,"Cc1nc(C(=O)N[C@@H](c2ccc(OC(F)F)c(F)c2)C2CC2)cc(=O)[nH]1 [Example 629, N-{(R)-cyclopropyl[4-(difluoromethoxy)-3-fluorophenyl]methyl]-2-methyl-6-oxo-1,6-dihydropyrimidine-4-carboxamide]",53 nM
13,"Cc1nc(C(=O)NC(C)(C)c2ccc(OC(F)(F)F)cc2F)cc(=O)[nH]1 [Example 597, N-{1-[2-fluoro-4-(trifluoromethoxy)phenyl]-1-methylethyl}-2-methyl-6-oxo-1,6-dihydropyrimidine-4-carboxamide]",137 nM
14,"Cc1cc(C(F)(F)F)ccc1C(C)(C)NC(=O)c1cc(=O)[nH]c(-c2ncccn2)n1 [Example 569, N-{1-methyl-1-[2-methyl-4-(trifluoromethyl)phenyl]ethyl}-6-oxo-1,6-dihydro-2,2′-bipyrimidine-4-carboxamide]",139 nM
15,"Cc1nc(C(=O)NC(C)c2ccc(C(F)(F)C(F)(F)F)cc2)cc(=O)[nH]1 (single isomer, unassigned) [Example 684, (S)- or (R)-2-methyl-6-oxo-N-(1-(4-(perfluoroethyl)phenyl)ethyl)-1,6-dihydropyrimidine-4-carboxamide]",> 2960 nM

# These reach a lower Ki. Values come first.
row,Ki,SMILES
1,32 nM,"CC(C)c1ccc(C2(NC(=O)c3cc(=O)[nH]c(-c4ncccn4)n3)CC2)cc1 [Example 576, N-{1-[4-(1-methylethyl)phenyl]cyclopropyl}-6-oxo-1,6-dihydro-2,2′-bipyrimidine-4-carboxamide]"
2,28 nM,"Cc1nc(C(=O)N[C@]2(c3ccc(C(F)(F)F)cc3)C[C@@H]2C)cc(=O)[nH]1 (single isomer, unassigned) [Example 670, 2-methyl-N-{2-methyl-1-[4-(trifluoromethyl)phenyl]cyclopropyl}-6-oxo-1,6-dihydropyrimidine-4-carboxamide]"
3,19 nM,"CC(C)(C)[C@@H](NC(=O)c1cc(=O)[nH]c(-c2ncccn2)n1)c1ccc2c(c1)OC(F)(F)O2 [Example 586, N-[(1R)-1-(2,2-difluoro-1,3-benzodioxol-5-yl)-2,2-dimethylpropyl]-6-oxo-1,6-dihydro-2,2′-bipyrimidine-4-carboxamide]"
4,17 nM,"C[C@@H](NC(=O)c1cc(=O)[nH]c(-c2ccccc2)n1)c1cc(F)c(C(F)(F)F)cc1F [Example 550, N-{(1R)-1-[2,5-difluoro-4-(trifluoromethyl)phenyl]ethyl}-6-oxo-2-phenyl-1,6-dihydropyrimidine-4-carboxamide]"
5,8 nM,"CC(C)[C@@H](NC(=O)c1cc(=O)[nH]c(-c2ccccc2)n1)c1ccc(C2(C)CC2)cc1 [Example 533, N-{(1R)-2-methyl-1-[4-(1-methylcyclopropyl)phenyl]propyl}-6-oxo-2-phenyl-1,6-dihydropyrimidine-4-carboxamide]"
6,7.3 nM,"Cc1nc(C(=O)N[C@@H](c2ccc(C(F)F)cc2)C(C)(C)C)cc(=O)[nH]1 [Example 644, N-{(1R)-1-[4-(difluoromethyl)phenyl]-2,2-dimethylpropyl}-2-methyl-6-oxo-1,6-dihydropyrimidine-4-carboxamide]"
7,6.7 nM,"CC1([C@@H](NC(=O)c2cc(=O)[nH]c(-c3ncccn3)n2)c2ccc(S(F)(F)(F)(F)F)cc2)CC1 [Example 564, N-{(R)-(1-methylcyclopropyl)[4-(pentafluoro-λ^6-sulfanyl)phenyl]methyl}-6-oxo-1,6-dihydro-2,2′-bipyrimidine-4-carboxamide]"
8,6.6 nM,"Cc1nc(C(=O)N[C@@H](c2ccc(C(F)F)cc2F)C(C)(C)C)cc(=O)[nH]1 [Example 661, N-{(1R)-1-[4-(difluoromethyl)-2-fluorophenyl]-2,2-dimethylpropyl}-2-methyl-6-oxo-1,6-dihydropyrimidine-4-carboxamide]"
9,5.1 nM,"Cc1nc(C(=O)N[C@@H](c2ccc(OC(F)F)c(F)c2)C(C)(C)C)cc(=O)[nH]1 [Example 630, N-{(1R)-1-[4-(difluoromethoxy)-3-fluorophenyl]-2,2-dimethylpropyl}-2-methyl-6-oxo-1,6-dihydropyrimidine-4-carboxamide]"
10,4.5 nM,"CC(C)(C)[C@@H](NC(=O)c1cc(=O)[nH]c(-c2ncccn2)n1)c1ccc(SC(F)(F)F)cc1 [Example 555, N-[(1R)-2,2-dimethyl-1-{4-[(trifluoromethyl)sulfanyl]phenyl}propyl]-6-oxo-1,6-dihydro-2,2′-bipyrimidine-4-carboxamide]"
11,1.2 nM,"CC(C)(C)[C@@H](NC(=O)c1cc(=O)[nH]c(-c2ccccc2)n1)c1ccc(C(F)(F)F)cc1F [Example 545, N-{(1R)-1-[2-fluoro-4-(trifluoromethyl)phenyl]-2,2-dimethylpropyl}-6-oxo-2-phenyl-1,6-dihydropyrimidine-4-carboxamide]"
